Experimental findings from patent US9296787B2, “Antitumor peptide and use thereof” (priority 2011, dated 2016) are described below.

Where two headings read alike, the source gives them in different places. Positions of bridges follow the written chain, without caps; N, C: chain ends. Residues, ends and D or L forms follow the SMILES beside them. No end group written: not given here.

Common to all, as to assay type: cell-based
One experiment deals with HeLa cells (HeLa S3). The settings on record: WST-8 absorbance after 24 hours. As to the method: (§1) As the tumor cells tested, a commercial mouse neuroblastoma cell line (N1E-115) was used. The cell line was cultured beforehand in a DMEM medium (i.e. Dulbecco MEM medium (DMEM medium, a Gibco product) containing 10% fetal bovine serum (FBS, a Gibco product), 2 mM of L-glutamine, 50 unit/mL of penicillin, and 50 μg/mL of streptomycin), and the number of cells per well in a 96-well plate was adjusted to approximately 5×10^3. The volume of the medium for this was 100 μL per well.
(§2) Subsequently, the stock solution of each sample peptide shown in Table 3 was added to each well to a peptide concentration in the well of 50 μM or 100 μM.
(§3) After the sample peptides were added as described above, the 96-well plate was placed in a CO2 incubator and cultured without agitation at 37° C. under 5% CO2. At the time of the peptide addition (at the start of treatment) and at 6 hours or 24 hours from the peptide addition and the start of incubation, the viability status of the cultured cells tested was analyzed with a commercial colorimetric assay kit. In particular, to each cell-culturing well, “water-soluble tetrazolium salt (WST-8)” was added as a colorimetric reagent; after two hours of incubation following the addition, the cell culture medium supplied with the colorimetric reagent was collected; and the level of inhibition of cell proliferation was evaluated by colorimetry, measuring the absorbance at a wavelength of 450 nm (values corrected with the absorbance at a wavelength of 620 nm, A450-A620) based on reduction of tetrazolium salt. Based on the absorbance at the time of the sample peptide addition (at the start of treatment), the percent decrease in the absorbance after 6 hours or 24 hours was determined as the cell proliferation inhibition rate (%).
HeLa cells (HeLa S3) were substituted for the tumor cells tested and the same test as Example 2 described above was carried out. In the present example, the peptides of Samples 1 to 7, 9, 10, 13, 16, 21 and 35 were used.

In a further experiment the test system is HeLa cells. As to the kind of experiment: Multipolar spindle formation, DAPI and anti-tubulin immunofluorescence microscopy. Conditions: after 24 hours. As to the method: In addition, the cultured cells supplemented with the peptides were observed under fluorescence microscope. Herein, as for some examples, the observations on Samples 1, 9, 13, 16, 21 and 35 are outlined. In particular, each peptide was added to a peptide concentration in a well of 50 μM (Samples 1, 9) or 100 μM (Samples 13, 16, 21, 35). After 24 hours, the cultured cells were subjected to nuclear staining with DAPI (4′,6-diamidino-2-phenylindole) and observed under fluorescence microscope. As a marker for spindles, α-tubulin was used; and the cells were tested for the presence of tubulin (i.e. the presence of spindles) by immunofluorescence, using a fluorescence-labeled anti-tubulin antibody to identify the tubulin. FIGS. 1 to 6 show merged images of DAPI-stained images and fluorescence images showing the results of the immunofluorescence assays using the fluorescence-labeled anti-tubulin antibody.

Experiment [1] relates to human alveolar basal epithelial adenocarcinoma cells, A549. Conditions: for antitumor activity (tumor cell proliferation-inhibiting activity), in words: A549, 50 μM, 24 hours, summary of Table 5; for A450(-A620) After 24 hers: A549, peptide 50 μM, WST-8 absorbance after 24 hours. As to the method: as §1, §2, §3
Cells forming a […] (human alveolar basal epithelial adenocarcinoma cells, A549) were substituted for the tumor cells tested and the same test as Example 2 described above was carried out. In the present example, the peptides of Samples 1 to 13, 15 to 22, 24, 29, 35 and 40 were used.

Experiment [2] concerns mouse neuroblastoma cell line (N1E-115). Conditions: for A450(-A620) After 6 hers: WST-8 absorbance after 6 hours; for A450(-A620) After 24 hers: WST-8 absorbance after 24 hours. As to the method: Some of the sample peptides obtained in Example 1 were tested for antitumor activity against target cultured tumor cells. Details of the assay are as described below.
as §1, §2, §3

Consider `C[C@@H]1NC(=O)[C@H](CO)NC(=O)[C@H](CO)NC(=O)[C@@H](N)CSSC[C@@H](C(=O)O)NC(=O)[C@H](CO)NC(=O)[C@H](CCCCN)NC(=O)CNC(=O)[C@H]([C@@H](C)O)NC1=O` [Sample 1, CSSATGKSC] (H-CSSATGKSC-OH; disulfide 1-9; N-terminus and C-terminus assumed), for which the “A450(-A620) After 24 hers” value in the experiment with HeLa cells (HeLa S3) (HeLa S3, peptide 50 μM) was 0.1028; with HeLa cells (HeLa S3) (HeLa S3, peptide 100 μM) it was 0.0891; in experiment [1], 1.5487; in experiment [2] (N1E-115, peptide 50 μM), 0.1578; in experiment [2] (N1E-115, peptide 100 μM) it was 0.1119. In addition, the “formation of multipolar spindles (presence of many multipolar cells)” value (from here on “formation”) in the experiment on HeLa cells (peptide 50 μM) is “formation of multipolar spindles”. The “antitumor activity (tumor cell proliferation-inhibiting activity), in words” value is recorded as “high antitumor activity” in experiment [1] and “high antitumor activity” in experiment [2] (N1E-115, 50 or 100 μM, summary of Table 3). In addition, the “A450(-A620) After 6 hers” value in experiment [2] (N1E-115, peptide 50 μM) was 0.1361; in experiment [2] (N1E-115, peptide 100 μM), 0.1104.
For the compound `CC(C)C[C@@H]1NC(=O)[C@H](CO)NC(=O)[C@@H]2CCCN2C(=O)[C@@H]2CCCN2C(=O)[C@H](CCCNC(=N)N)NC(=O)[C@@H]2CCCN2C(=O)[C@@H](N)CSSC[C@@H](C(=O)O)NC(=O)[C@H](CCC(=O)O)NC1=O` [Sample 9, CPRPPSLEC] (H-CPRPPSLEC-OH; disulfide 1-9; N-terminus and C-terminus assumed), the “A450(-A620) After 24 hers” value is given as 0.1366 in the experiment with HeLa cells (HeLa S3) (HeLa S3, peptide 50 μM); 0.0892 with HeLa cells (HeLa S3) (HeLa S3, peptide 100 μM); 1.8645 in experiment [1]. Further, the “formation” value with HeLa cells (peptide 50 μM) is given as “formation of multipolar spindles”.
With GPHHYWYHLRLP [Sample 16, GPHHYWYHLRLP], in the experiment with HeLa cells (peptide 100 μM), the “formation” value is “formation of multipolar spindles”. For the same compound, the “A450(-A620) After 24 hers” value in experiment [1] was 1.7309; in experiment [2] (N1E-115, peptide 50 μM), 0.6912; in experiment [2] (N1E-115, peptide 100 μM) it was 0.6048.
Consider GPHLGMNQRRRP [Sample 21, GPHLGMNQRRRP], for which the “formation” value in the experiment with HeLa cells (peptide 100 μM) is listed as “formation of multipolar spindles”. In addition, in experiment [1], the “antitumor activity (tumor cell proliferation-inhibiting activity), in words” value is “high antitumor activity”. Besides, the “A450(-A620) After 24 hers” value in experiment [1] stood at 1.5672; in experiment [2] (N1E-115, peptide 50 μM), 0.5284; in experiment [2] (N1E-115, peptide 100 μM), 0.5810.
For SVSVGMKPSPRP [Sample 13, SVSVGMKPSPRP], the “formation” value with HeLa cells (peptide 100 μM) is “formation of multipolar spindles”. Further, the “A450(-A620) After 24 hers” value in experiment [1] is reported as 1.9412; in experiment [2] (N1E-115, peptide 50 μM) it was 0.5681; in experiment [2] (N1E-115, peptide 100 μM) it was 0.6422.
Consider SVSVGMKPSPRPKKRTLRKNDRKKR [Sample 35], for which, in the experiment with HeLa cells (peptide 100 μM), the “formation” value was “formation of multipolar spindles”. In experiment [1], the “antitumor activity (tumor cell proliferation-inhibiting activity), in words” value is listed as “high antitumor activity” and the “A450(-A620) After 24 hers” value is listed as 1.7451.
